Assay results: paper PMC7385124, “The molecular basis of thioalcohol production in human body odour” (Scientific Reports, 2020)

Key:
[1] = target: T1, ShPatB (Staphylococcus hominis, UniProt Z9H0M2I6C5); experiment: DTNB thiol release, A412, Michaelis-Menten; type: biochemical; conditions: pH 7.8, 50 mM KPi, 200 mM NaCl, 37 °C, 0.4 mM DTNB
T1 construct: full length; pBADcLIC, expressed in E. coli MC1061; homodimer, PLP on Lys246
T1 sequence (Z9H0M2I6C5 7-404): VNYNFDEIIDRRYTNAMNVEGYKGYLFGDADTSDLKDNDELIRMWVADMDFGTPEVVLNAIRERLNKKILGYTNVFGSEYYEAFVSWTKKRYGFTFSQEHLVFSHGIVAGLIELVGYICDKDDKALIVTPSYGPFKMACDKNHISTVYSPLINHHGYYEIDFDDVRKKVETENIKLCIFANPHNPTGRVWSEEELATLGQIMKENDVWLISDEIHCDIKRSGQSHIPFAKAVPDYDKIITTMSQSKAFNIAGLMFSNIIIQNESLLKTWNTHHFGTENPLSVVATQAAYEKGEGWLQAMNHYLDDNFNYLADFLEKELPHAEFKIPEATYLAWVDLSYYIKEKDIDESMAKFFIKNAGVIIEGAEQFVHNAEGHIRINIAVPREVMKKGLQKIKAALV

[2] = target: T2, BsPatB (Bacillus subtilis, UniProt Q08432); experiment: X-ray crystallography, […] Å; type: binding; conditions: covalent internal aldimine at Lys234
T2 construct: gene patB; full length; N-terminal MGGGFA and C-terminal ENLYFQG-His10; expressed in E. coli MC1061; homodimer, PLP on Lys234
T2 sequence (Q08432 whole entry): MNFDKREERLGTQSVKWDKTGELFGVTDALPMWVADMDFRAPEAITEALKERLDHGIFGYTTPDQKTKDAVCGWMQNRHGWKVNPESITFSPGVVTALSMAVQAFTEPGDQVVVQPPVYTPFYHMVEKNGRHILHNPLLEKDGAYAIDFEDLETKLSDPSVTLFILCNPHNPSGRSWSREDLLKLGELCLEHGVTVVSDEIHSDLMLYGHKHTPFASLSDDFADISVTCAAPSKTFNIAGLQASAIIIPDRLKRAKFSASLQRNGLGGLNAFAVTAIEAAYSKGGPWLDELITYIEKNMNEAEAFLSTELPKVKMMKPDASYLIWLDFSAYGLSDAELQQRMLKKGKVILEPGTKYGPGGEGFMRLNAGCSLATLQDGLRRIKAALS

[3] = target: T1, ShPatB; experiment: X-ray crystallography, […] Å; type: binding; conditions: covalent internal aldimine at Lys246
[4] = target: T1, ShPatB; experiment: end point DTNB assay, A412; type: biochemical; conditions: 2.5 μM enzyme, 2.5 mM Cys-3M3SH; covalent to PLP, reversed by excess PLP
[5] = target: T3, EcMalY (Escherichia coli, UniProt P23256); experiment: DTNB thiol release, A412, Michaelis-Menten; type: biochemical; conditions: pH 7.8, 50 mM KPi, 200 mM NaCl, 37 °C, 0.4 mM DTNB
T3 construct: gene malY; full length; N-terminal MGGGFA and C-terminal ENLYFQG-His10; expressed in E. coli MC1061
T3 sequence (P23256 whole entry): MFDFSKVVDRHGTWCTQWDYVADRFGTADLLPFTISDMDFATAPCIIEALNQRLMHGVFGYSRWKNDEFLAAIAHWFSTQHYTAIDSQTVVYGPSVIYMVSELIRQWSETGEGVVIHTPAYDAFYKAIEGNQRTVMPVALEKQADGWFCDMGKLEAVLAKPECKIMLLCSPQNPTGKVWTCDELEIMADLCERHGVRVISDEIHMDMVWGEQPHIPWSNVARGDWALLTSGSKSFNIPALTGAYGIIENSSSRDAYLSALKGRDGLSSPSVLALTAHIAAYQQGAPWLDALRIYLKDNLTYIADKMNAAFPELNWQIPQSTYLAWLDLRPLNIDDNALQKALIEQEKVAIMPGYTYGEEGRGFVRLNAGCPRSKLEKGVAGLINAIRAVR

[6] = target: T2, BsPatB; experiment: DTNB thiol release, A412, Michaelis-Menten; type: biochemical; conditions: pH 7.8, 50 mM KPi, 200 mM NaCl, 37 °C, 0.4 mM DTNB
[7] = target: T4, SaPatB (Streptococcus anginosus, UniProt A6BMJ3); experiment: DTNB thiol release, A412, Michaelis-Menten; type: biochemical; conditions: pH 7.8, 50 mM KPi, 200 mM NaCl, 37 °C, 0.4 mM DTNB
T4 construct: gene lcd; full length; expressed in E. coli MC1061
T4 sequence (A6BMJ3 1-388): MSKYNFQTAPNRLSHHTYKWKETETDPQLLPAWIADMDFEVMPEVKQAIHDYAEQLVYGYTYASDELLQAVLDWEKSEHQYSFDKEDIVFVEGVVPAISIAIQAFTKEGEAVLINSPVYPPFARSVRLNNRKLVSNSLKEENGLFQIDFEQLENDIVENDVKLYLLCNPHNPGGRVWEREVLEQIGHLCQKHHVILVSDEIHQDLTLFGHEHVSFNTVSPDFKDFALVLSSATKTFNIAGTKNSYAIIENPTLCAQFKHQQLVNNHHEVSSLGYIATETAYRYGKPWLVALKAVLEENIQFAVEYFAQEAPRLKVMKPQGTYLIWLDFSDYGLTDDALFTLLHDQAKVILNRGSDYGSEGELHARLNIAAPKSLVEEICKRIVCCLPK

[8] = target: T5, ShMetC (Staphylococcus hominis, UniProt Z9HEU7RWP2); experiment: DTNB thiol release, A412, Michaelis-Menten; type: biochemical; conditions: pH 7.8, 50 mM KPi, 200 mM NaCl, 37 °C, 0.4 mM DTNB
T5 construct: full length; expressed in E. coli MC1061; species of 'Sh' not spelt out for MetC (S. haemolyticus possible)

[9] = target: T6, CjAecD (Corynebacterium jeikeium, UniProt Q4JWQ6); experiment: DTNB thiol release, A412, Michaelis-Menten; type: biochemical; conditions: pH 7.8, 50 mM KPi, 200 mM NaCl, 37 °C, 0.4 mM DTNB
T6 construct: gene aecD; full length; expressed in E. coli MC1061
T6 sequence (Q4JWQ6 1-416): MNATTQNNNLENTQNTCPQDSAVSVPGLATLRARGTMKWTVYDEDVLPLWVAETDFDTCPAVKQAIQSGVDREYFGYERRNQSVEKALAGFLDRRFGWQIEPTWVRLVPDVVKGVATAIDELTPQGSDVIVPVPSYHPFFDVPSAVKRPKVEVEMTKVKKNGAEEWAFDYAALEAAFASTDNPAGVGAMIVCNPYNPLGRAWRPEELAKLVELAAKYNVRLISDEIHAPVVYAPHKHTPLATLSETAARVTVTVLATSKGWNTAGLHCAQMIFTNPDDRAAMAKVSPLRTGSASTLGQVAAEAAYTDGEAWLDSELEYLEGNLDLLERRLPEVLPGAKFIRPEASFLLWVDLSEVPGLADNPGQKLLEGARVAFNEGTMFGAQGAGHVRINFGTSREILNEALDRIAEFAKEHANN

[10] = target: T7, SeMetC (Staphylococcus epidermidis, UniProt Q5HRU7); experiment: DTNB thiol release, A412, Michaelis-Menten; type: biochemical; conditions: pH 7.8, 50 mM KPi, 200 mM NaCl, 37 °C, 0.4 mM DTNB
T7 construct: gene SERP0095; full length; expressed in E. coli MC1061; species of 'Se' not spelt out
T7 sequence (Q5HRU7 1-381): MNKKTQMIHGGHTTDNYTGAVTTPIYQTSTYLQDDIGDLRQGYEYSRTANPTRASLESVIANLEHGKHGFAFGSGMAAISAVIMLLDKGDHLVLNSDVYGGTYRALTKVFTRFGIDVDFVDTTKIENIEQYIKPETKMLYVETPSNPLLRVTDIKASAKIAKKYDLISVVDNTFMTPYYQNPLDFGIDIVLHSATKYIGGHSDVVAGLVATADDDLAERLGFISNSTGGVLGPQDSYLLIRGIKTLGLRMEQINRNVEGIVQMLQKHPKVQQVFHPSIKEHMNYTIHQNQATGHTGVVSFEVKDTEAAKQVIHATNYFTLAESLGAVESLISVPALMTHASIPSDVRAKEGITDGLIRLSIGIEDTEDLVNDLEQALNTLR

Compound	KM [1]	KM [5]	KM [6]	KM [7]	other results
CC(C)(CCO)SC[C@H](N)C(=O)O [Felinine]	We also measured enzyme activity against Felinine, a close structural analog of Cys-3M3SH				
Cc1ncc(COP(=O)(O)O)c(C=O)c1O [PLP, pyridoxal phosphate]					X-ray crystallography, 2.3 Å [2]: each subunit containing a PLP moiety covalently bound to a conserved lysine residue; X-ray crystallography, 1.6 Å [3]: each subunit containing a PLP moiety covalently bound to a conserved lysine residue
N[C@H]1CONC1=O [LCS, L-cycloserine]					inhibition (end point) [4]: Cycloserine in vitro inhibition of ShPatB with Cys-3M3SH as the substrate
CCCC(C)(CCO)SC[C@H](N)C(=O)O (some centres unmarked) [Cys-3M3SH]	ShPatB exhibits selectivity towards Cys-3M3SH	E. coli MalY (EcMalY) had higher activities against cystathionine	B. subtilis (BsPatB) and Streptococcus anginosus (SaPatB) did not discriminate between the two ligands	Streptococcus anginosus (SaPatB) did not discriminate between the two ligands	
N[C@@H](CCSC[C@H](N)C(=O)O)C(=O)O [cystathionine]		E. coli MalY (EcMalY) had higher activities against cystathionine	B. subtilis (BsPatB) and Streptococcus anginosus (SaPatB) did not discriminate between the two ligands	Streptococcus anginosus (SaPatB) did not discriminate between the two ligands	KM [8]: higher activities against cystathionine, similar to the MetC enzymes included (ShMetC and SeMetC); KM [9]: CjAecD is selective for cystathionine over Cys-3M3SH; KM [10]: higher activities against cystathionine, similar to the MetC enzymes included (ShMetC and SeMetC)
